A short description of one data set: Solubility in solvents. The data set is classed as physicochemical.
The next data set relates to MDA-MB-231 (TNBC) cells. Briefly: MTT cell viability assay, MDA-MB-231. The data set is classed as cell-based, human. An excerpt: (§1) For in vitro assays, three tumor cell lines were used: MCF7 (ER-positive BC), maintained in Roswell Park Memorial Institute medium (RPMI-1640, Gibco®, Grand Island, NY, USA); MDA-MB-453 (HER2-positive BC), grown in Iscove’s Modified Dulbecco’s Medium (IMDM, Gibco®); and MDA-MB-231 (TNBC), grown in Leibovitz’s L-15 Medium (L15, Gibco®). Additionally, three non-tumor cell lines were used: HUVEC (human umbilical vein endothelial cells), cultured in (RPMI-1640); HFF (human fibroblast), cultured in Dulbecco’s Modified Eagle Medium: Nutrient Mixture—High Glucose (DMEM/F12-High Glucose, Gibco®); and MCF10A (human mammary epithelial cell line), also cultured in DMEM/F12 supplemented with 10 μg/mL of insulin (Gibco®), 0.25 μg/mL of hydrocortisone (Sigma-Aldrich®, Saint Louis, MO, USA), and […] of Epidermal Growth Factor (EGF) (Gibco®). All culture media were supplemented with 10% fetal bovine serum (FBS) (Gibco®) and 50 μg/mL of gentamicin (Cultilab®, Campinas, SP, Brazil). The culture flasks were kept in an incubator at 37 °C under an atmosphere of 5% CO2, except for the MDA-MB 231 lineage, which was grown without CO2 gas exchange. All cells were purchased from the American Type Culture Collection (ATCC, Manassas, VA, USA).
(§2) To analyze cell viability, the test based on the reduction of tetrazolium 3-(4,5-dimethylthiazol-2yl)-2,5-diphenyl bromide (MTT) was used. HUVEC cell lines (1.0 × 10^4 cells/well); HFF (8.0 × 10^3 cells/well); MCF10A (1.2 × 10^4 cells/well); MDA-MB-453 and MCF7 (5.0 × 10^3 cells/well) and MDA-MB-231 (1.5 × 10^4 cells/well) were seeded in 96-well plates in complete culture medium. […] All assays were performed in triplicate. Wells containing only cells and medium (untreated cells) and wells containing cells treated with DMSO diluent were used as experimental controls (considered as 100% cell viability). After incubation, MTT (5 mg/mL-diluted in phosphate-buffered saline—PBS) was added along with complete culture medium at 10% v/v and maintained for 4 h. Then, 200 μL of DMSO was added to each well and the reading was carried out at 560 nm using the Multiskan FC Microplate Photometer reader (Thermo Fisher Scientific®, Waltham, MA, USA).
(§3) The data obtained were analyzed using GraphPad Prism 8.0 software. Three independent triplicate assays were conducted and means and standard deviations were calculated. Normality was assessed using the Shapiro–Wilk test and Student’s t-test and one-way ANOVA, followed by Tukey’s post-test, were applied to compare treatments. Differences were considered significant when p < 0.05. The IC50 values were calculated by non-linear regression and the selectivity index (SI) for MDA-MB-231 cells was established by the ratio between the IC50 of each non-tumor cell line and the IC50 of MDA-MB-231. SI values ≥ 2 were considered significant.
A general note: Formazan colour is commonly taken as a measure of viable cells.

The test system of data set [1] is MCF7 (ER-positive BC) cells. The experiment in a line: MTT cell viability assay, MCF7. The data set is classed as cell-based, human.
Source text: as §1, §2, §3

Data set [2] has as its system MDA-MB-453 (HER2-positive BC) cells. Briefly: MTT cell viability assay, MDA-MB-453. The data set is classed as cell-based, human. Here is the method: All culture media were supplemented with 10% fetal bovine serum (FBS) (Gibco®) and 50 μg/mL of gentamicin (Cultilab®, Campinas, SP, Brazil). […] All cells were purchased from the American Type Culture Collection (ATCC, Manassas, VA, USA).
as §2, with “used.” for “used. HUVEC cell lines (1.0 × 10^4 cells/well); HFF (8.0 × 10^3 cells/well); MCF10A (1.2 × 10^4 cells/well); MDA-MB-453 and MCF7 (5.0 × 10^3 cells/well) and MDA-MB-231 (1.5 × 10^4 cells/well) were seeded in 96-well plates in complete culture medium.”
The data obtained were analyzed using GraphPad Prism 8.0 software. Three independent triplicate assays were conducted and means and standard deviations were calculated. Normality was assessed using the Shapiro–Wilk test and Student’s t-test and one-way ANOVA, followed by Tukey’s post-test, were applied to compare treatments. Differences were considered significant when p < 0.05. […] SI values ≥ 2 were considered significant.

A further data set concerns HFF (human fibroblast). The experiment in a line: MTT cell viability assay, HFF. The data set is classed as cell-based. Here is the method: (§4) For in vitro assays, three tumor cell lines were used: MCF7 (ER-positive BC), maintained in Roswell Park Memorial Institute medium (RPMI-1640, Gibco®, Grand Island, NY, USA); MDA-MB-453 (HER2-positive BC), grown in Iscove’s Modified Dulbecco’s Medium (IMDM, Gibco®); and MDA-MB-231 (TNBC), grown in Leibovitz’s L-15 Medium (L15, Gibco®). […]
(§5) To analyze cell viability, the test based on the reduction of tetrazolium 3-(4,5-dimethylthiazol-2yl)-2,5-diphenyl bromide (MTT) was used. […] Then, 200 μL of DMSO was added to each well and the reading was carried out at 560 nm using the Multiskan FC Microplate Photometer reader (Thermo Fisher Scientific®, Waltham, MA, USA).
(§6) The data obtained were analyzed using GraphPad Prism 8.0 software. Three independent triplicate assays were conducted and means and standard deviations were calculated. Normality was assessed using the Shapiro–Wilk test and Student’s t-test and one-way ANOVA, followed by Tukey’s post-test, were applied to compare treatments. […] The IC50 values were calculated by non-linear regression and the selectivity index (SI) for MDA-MB-231 cells was established by the ratio between the IC50 of each non-tumor cell line and the IC50 of MDA-MB-231. […]

Data set [3] concerns MCF10A (human mammary epithelial cell line). Briefly: MTT cell viability assay, MCF10A. The data set is classed as cell-based. Also noted: key to SI (Non-Tumor/MDA-MB231) MCF10A: NS: nonselective; HS: highly selective.
Source text: as §1, §5, §6

Data set [4] relates to HUVEC (human umbilical vein endothelial cells). The experiment in a line: MTT cell viability assay, HUVEC. The data set is classed as cell-based. Here is the method: as §4, §5, §6

From PMC11676115, “A New Heteroleptic Zn(II) Complex with Schiff Bases Sensitizes Triple-Negative Breast Cancer Cells to Doxorubicin and Paclitaxel” (Pharmaceutics, 2024) come the findings set out here.

Molecules are shown by their SMILES.

For the compound `CC(=NNC(N)=O)c1ccccn1.CCNC(=NN=C(C)c1ccccn1)[S][Zn+].[Cl-]` [Complex 3, [Zn(atc–Et)(Hsc)]Cl], the “solubility in MeOH” value in “Solubility in solvents” is reported as “pretty soluble”.
In general, IC50 refers to the point on the concentration scale where inhibition reaches its midpoint. In the case of `CCNC(=S)N/N=C(\C)c1ccccn1` [Hatc-Et, 2-Acetylpyridine-4-ethyl-3-thiosemicarbazone], in the data set on MDA-MB-231 (TNBC) cells (48 h), the “cytotoxicity in words, MDA-MB-231” value was “most sensitive”. In addition, the IC50 in the data set with MDA-MB-231 (TNBC) cells (Homo sapiens, MDA-MB-231, 48 h) was 0.27 µM; in data set [1] (Homo sapiens, MCF7, 48 h), more than 156 µM; in data set [2] (Homo sapiens, MDA-MB-453, 48 h) it was less than 0.01 µM. For the same compound, in data set [1] (48 h), the “cytotoxicity in words, MCF7” value is on record as “most resistant”. Moreover, the “cytotoxicity in words, MDA-MB-453” value in data set [2] (48 h) is “most sensitive”.
Turning to `CCNC(=NN=C(C)c1ccccn1)[S][Zn][O]C(=NN=C(C)c1ccccn1)c1ccco1` [Complex 1, [Zn(Hz)(atc–Et)]], the IC50 was 0.24 µM in the data set with MDA-MB-231 (TNBC) cells (48 h); 4.57 µM in the data set with HFF (human fibroblast) (48 h, MTT, non-tumor cell line); less than 0.01 µM in data set [3] (48 h, MTT, non-tumor cell line); 9.43 µM in data set [1] (48 h); 2.52 µM in data set [4] (48 h, MTT, non-tumor cell line); 0.32 µM in data set [2] (48 h). Moreover, in the data set with MDA-MB-231 (TNBC) cells (48 h), the “cytotoxicity in words, MDA-MB-231” value is “cytotoxic”. Further, the “SI (Non-Tumor/MDA-MB231) HFF” value with HFF (human fibroblast) (IC50 in HFF divided by IC50 of MDA-MB-231) is given as 19.04. The “sensitivity in words, MCF10A” value in data set [3] (48 h, MTT, compared with HUVEC and HFF) is “most sensitive”. For the same compound, the “SI (Non-Tumor/MDA-MB231) MCF10A” value in data set [3] (IC50 in MCF10A divided by IC50 of MDA-MB-231) was “NS”. In data set [1] (48 h), the “concentration from which cell viability decreased, MCF7” value was not below 0.25 µM. The “cytotoxicity in words, MCF7” value in data set [1] (48 h) is “proliferated after treatment with the lowest concentrations”. Besides, in data set [4] (IC50 in HUVEC divided by IC50 of MDA-MB-231), the “SI (Non-Tumor/MDA-MB231) HUVEC” value is 10.50. Further, in data set [2] (48 h), the “cytotoxicity in words, MDA-MB-453” value is “cytotoxic”.
On to `CC(=NNC(=O)c1ccco1)c1ccccn1` [Hhz, 2-Acetylpyridine-furanoylhidrazone], for which the “concentration from which cytotoxicity was observed, MDA-MB-231” value with MDA-MB-231 (TNBC) cells (48 h) is not below 1250 nM. For the same compound, the half-maximal inhibitory concentration (IC50) in the data set with MDA-MB-231 (TNBC) cells (Homo sapiens, MDA-MB-231, 48 h) is 30.3 µM; in data set [1] (Homo sapiens, MCF7, 48 h) it was more than 156 µM; in data set [2] (Homo sapiens, MDA-MB-453, 48 h), 4.11 µM. Besides, in data set [1] (48 h), the “concentration from which cell viability decreased, MCF7” value was not below 6.25 µM. In data set [2] (48 h), the “concentration from which cell viability decreased, MDA-MB-453” value was not below 6.25 µM.
In the case of `CC(=NN=C([O][Zn+])c1ccco1)c1ccccn1.CC(=NNC(N)=O)c1ccccn1.[Cl-]` [Complex 4, [Zn(Hz)(Hsc)]Cl], the “solubility in MeOH” value in “Solubility in solvents” was “pretty soluble”.
`[Cl-].[Cl-].[Zn+2]` [ZnCl2, zinc chloride]: the IC50 is more than 156 µM in the data set on MDA-MB-231 (TNBC) cells (48 h), more than 156 µM in data set [1] (48 h) and less than 0.01 µM in data set [2] (48 h).
